From ChEMBL document CHEMBL5385844, “Discovery of novel imidazole chemotypes as isoform-selective JNK3 inhibitors for the treatment of Alzheimer's disease” (Eur J Med Chem, 2023)
Activity calls are given as the source filed them. The rule behind the calls is not given here.

Key:
[1] = target: Mitogen-activated protein kinase 10 (Homo sapiens, UniProt P53779); test: Inhibition of human JNK3 incubated for 40 mins in presence of ATP and [gamma33P-ATP] by scintillation counting method; settings: read-out: IC50
[2] = target: T1, Mitogen-activated protein kinase 8 (Homo sapiens, UniProt P45983); test: Inhibition of human JNK1 incubated for 40 mins in presence of ATP and [gamma33P-ATP] by scintillation counting method
[3] = target: T2, Mitogen-activated protein kinase 9 (Homo sapiens, UniProt P45984); test: Inhibition of human JNK2 incubated for 40 mins in presence of ATP and [gamma33P-ATP] by scintillation counting method
[4] = tested on: Cortical neurone; test: Neuroprotective activity against Amyloid beta (1 to 42)-induced toxicity in rat cortical neuron assessed as cell viability measured after 24 to 48 hrs by MTT assay; type: functional, cell-based; settings: time 24-48 hrs
[5] = target: T1, Mitogen-activated protein kinase 8; test: Inhibition of JNK1 (unknown origin) by ATP-competitive assay
[6] = target: T2, Mitogen-activated protein kinase 9; test: Inhibition of JNK2 (unknown origin) by ATP-competitive assay
[7] = Permeability of the compound by PAMPA-BBB assay; type: ADME; settings: read-out: permeability
[8] = Efflux ratio of apparent permeability basolateral to apical side over apical to basolateral side in human Caco-2 cells at 10 uM incubated for 1 hr by LC-MS/MS analysis; type: ADME, cell-based
[9] = Apparent permeability across basolateral to apical side in human Caco-2 cells at 10 uM incubated for 1 hr by LC-MS/MS analysis; type: ADME, cell-based
[10] = Apparent permeability across apical to basolateral side in human Caco-2 cells at 10 uM incubated for 1 hr by LC-MS/MS analysis; type: ADME, cell-based
[11] = Toxicity in homozygous 3 x Tg mouse model assessed as visual inspection at 60 mg/kg, po daily for 2.2 months; type: organism-based; settings: in vivo, 1606 h
[12] = tested on: Mus musculus; test: Anti-alzheimer activity against homozygous 3 x Tg mouse model assessed as time spent in platform quadrant at 60 mg/kg, po administered daily for 2.2 months and measured after 68 to 73 days of treatment by Morris water maze test (reference value: 14.26 +/- 1.62 sec); type: functional; settings: 1606 h
[13] = tested on: Mus musculus; test: Anti-alzheimer activity against homozygous 3 x Tg mouse model assessed as escape latency time at 30 mg/kg, po administered daily for 2.2 months and measured after 60 days of treatment by Passive avoidance test (reference value: 40.6 +/- 6 sec); type: functional; settings: 1606 h
[14] = tested on: Mus musculus; test: Anti-alzheimer activity against homozygous 3 x Tg mouse model assessed as spontaneous alteration at 60 mg/kg, po administered daily for 2.2 months and measured after 57 days of treatment by Y-maze test (reference value: 45.05 +/- 3.61%); type: functional; settings: 1606 h
[15] = tested on: Mus musculus; test: Anti-alzheimer activity against APP/PS1 dE9 double transgenic mouse model assessed as time spent in platform quadrant at 30 mg/kg, po administered 3 times/week for 1 month and measured after 40 to 45 days of treatment by Morris water maze test (reference value: 15.94 +/- 2.08 sec); type: functional; settings: time 1 months, 730 h
[16] = tested on: Mus musculus; test: Anti-alzheimer activity against APP/PS1 dE9 double transgenic mouse model assessed as time spent in platform quadrant at 10 mg/kg, po administered 3 times/week for 1 month and measured after 40 to 45 days of treatment by Morris water maze test (reference value: 15.94 +/- 2.08 sec); type: functional; settings: time 1 months, 730 h
[17] = tested on: Mus musculus; test: Anti-alzheimer activity against APP/PS1 dE9 double transgenic mouse model assessed as escape latency time at 30 mg/kg, po administered 3 times/week for 1 month and measured after 27 days of treatment by Passive avoidance test (reference value: 24.8 +/- 4.1 sec); type: functional; settings: time 1 months, 730 h
[18] = tested on: Mus musculus; test: Anti-alzheimer activity against APP/PS1 dE9 double transgenic mouse model assessed as escape latency time at 10 mg/kg, po administered 3 times/week for 1 month and measured after 27 days of treatment by Passive avoidance test (reference value: 24.8 +/- 4.1 sec); type: functional; settings: time 1 months, 730 h
[19] = tested on: Mus musculus; test: Anti-alzheimer activity against APP/PS1 dE9 double transgenic mouse model assessed as spontaneous alteration at 30 mg/kg, po administered 3 times/week for 1 month and measured after 27 days of treatment by Y-maze test (reference value: 45.51 +/- 2.92%); type: functional; settings: time 1 months, 730 h
[20] = tested on: Mus musculus; test: Anti-alzheimer activity against APP/PS1 dE9 double transgenic mouse model assessed as spontaneous alteration at 10 mg/kg, po administered 3 times/week for 1 month and measured after 27 days of treatment by Y-maze test (reference value: 45.51 +/- 2.92%); type: functional; settings: time 1 months, 730 h
[21] = Toxicity in APP/PS1 mouse assessed as abnormal symptoms at 60 mg/kg, po treated for 2 months; type: organism-based; settings: in vivo, 1460 h
[22] = Toxicity in APP/PS1 mouse assessed as weight change at 60 mg/kg, po treated for 2 months; type: organism-based; settings: in vivo, 1460 h
[23] = Toxicity in APP/PS1 mouse assessed as weight change at 30 mg/kg, po treated for 2 months; type: organism-based; settings: in vivo, 1460 h
[24] = Toxicity in APP/PS1 mouse assessed as abnormal symptoms at 30 mg/kg, po treated for 2 months; type: organism-based; settings: in vivo, 1460 h
[25] = Brain to Plasma ratio in Sprague-Dawley rat at 30 mg/kg, po measured at Tmax; type: ADME, organism-based; settings: read-out: BPR
[26] = Plasma concentration in Sprague-Dawley rat at 30 mg/kg, po measured at Tmax; type: ADME, organism-based
[27] = Drug uptake in Sprague-Dawley rat brain at 30 mg/kg, po measured at Tmax; type: ADME, organism-based; settings: in vivo
[28] = Oral bioavailability in Sprague-Dawley rat at 3 mg/kg measured upto 24 hrs by UPLC analysis; type: ADME, organism-based; settings: in vivo
[29] = Half life in Sprague-Dawley rat at 3 mg/kg, po measured upto 24 hrs by UPLC analysis; type: ADME, organism-based; settings: in vivo
[30] = Half life in Sprague-Dawley rat at 1 mg/kg, iv measured upto 24 hrs by UPLC analysis; type: ADME, organism-based; settings: in vivo
[31] = Tmax in Sprague-Dawley rat at 3 mg/kg, po measured upto 24 hrs by UPLC analysis; type: ADME, organism-based; settings: in vivo
[32] = Cmax in Sprague-Dawley rat at 3 mg/kg, po measured upto 24 hrs by UPLC analysis; type: ADME, organism-based; parameters: dose 3 mg/kg, time < 24 hrs, route po; settings: in vivo
[33] = AUC in Sprague-Dawley rat at 1 mg/kg, iv measured upto 24 hrs by UPLC analysis; type: ADME, organism-based; parameters: dose 1 mg/kg, time < 24 hrs, route iv; settings: in vivo
[34] = tested on: Cortical neurone; test: Neuroprotective activity against Amyloid beta (1 to 42)-induced toxicity in rat cortical neuron assessed as cell viability at 20 uM measured after 24 hrs by MTT assay; type: functional; settings: read-out: Activity
[35] = tested on: Cortical neurone; test: Neuroprotective activity against Amyloid beta (1 to 42)-induced toxicity in rat cortical neuron assessed as cell viability at 20 uM measured after 48 hrs by MTT assay; type: functional; settings: read-out: Activity
[36] = target: T1, Mitogen-activated protein kinase 8; test: Inhibition of JNK1 (unknown origin) assessed as incorporation of 33P-ATP
[37] = target: T2, Mitogen-activated protein kinase 9; test: Inhibition of JNK2 (unknown origin) assessed as incorporation of 33P-ATP

T1 sequence (P45983 whole entry): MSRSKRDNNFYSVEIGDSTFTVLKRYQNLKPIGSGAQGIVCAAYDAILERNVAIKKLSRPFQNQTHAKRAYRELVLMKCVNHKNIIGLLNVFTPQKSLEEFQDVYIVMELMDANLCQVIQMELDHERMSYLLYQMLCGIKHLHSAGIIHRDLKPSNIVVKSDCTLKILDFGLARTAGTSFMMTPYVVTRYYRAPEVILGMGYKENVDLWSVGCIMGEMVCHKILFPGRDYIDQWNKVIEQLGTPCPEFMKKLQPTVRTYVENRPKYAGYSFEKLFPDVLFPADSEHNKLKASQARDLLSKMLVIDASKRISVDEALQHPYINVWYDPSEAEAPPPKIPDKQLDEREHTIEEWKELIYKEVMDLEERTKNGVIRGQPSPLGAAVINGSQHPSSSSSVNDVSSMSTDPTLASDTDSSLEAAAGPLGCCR
T2 sequence (P45984 whole entry): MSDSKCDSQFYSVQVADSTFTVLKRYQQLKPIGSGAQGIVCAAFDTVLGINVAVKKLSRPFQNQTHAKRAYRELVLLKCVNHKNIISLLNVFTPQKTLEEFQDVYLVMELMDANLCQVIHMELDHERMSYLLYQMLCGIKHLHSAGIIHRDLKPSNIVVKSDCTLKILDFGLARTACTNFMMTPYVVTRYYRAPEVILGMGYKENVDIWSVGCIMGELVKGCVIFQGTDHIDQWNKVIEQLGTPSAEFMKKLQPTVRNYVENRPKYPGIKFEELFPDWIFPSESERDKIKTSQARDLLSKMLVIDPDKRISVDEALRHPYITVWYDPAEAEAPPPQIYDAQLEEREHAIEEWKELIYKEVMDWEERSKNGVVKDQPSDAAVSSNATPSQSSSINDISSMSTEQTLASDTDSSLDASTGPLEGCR
Chain of Mitogen-activated protein kinase 10 (P53779 whole entry): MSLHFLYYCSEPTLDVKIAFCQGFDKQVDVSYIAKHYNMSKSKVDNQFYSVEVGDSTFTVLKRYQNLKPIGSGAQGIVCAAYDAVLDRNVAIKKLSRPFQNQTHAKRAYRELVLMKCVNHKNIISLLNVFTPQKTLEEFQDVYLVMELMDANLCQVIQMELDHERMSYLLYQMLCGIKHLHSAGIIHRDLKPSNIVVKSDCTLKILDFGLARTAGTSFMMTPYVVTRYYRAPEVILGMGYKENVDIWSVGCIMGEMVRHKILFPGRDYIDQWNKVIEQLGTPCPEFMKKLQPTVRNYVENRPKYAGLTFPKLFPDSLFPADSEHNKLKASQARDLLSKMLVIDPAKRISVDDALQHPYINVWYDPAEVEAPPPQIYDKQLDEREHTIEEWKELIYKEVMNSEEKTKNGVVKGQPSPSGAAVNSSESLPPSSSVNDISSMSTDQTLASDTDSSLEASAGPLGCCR

For `C[C@@H](O)CNc1nccc(-n2c(CC#N)cnc2-c2ccc(Cl)c(Cl)c2)n1`, the IC50 [1] was 6.76 µM.
Molecule `N#CCc1cnc(-c2ccc3ccccc3n2)n1-c1ccnc(N[C@H]2CCCNC2)n1` has an IC50 [1] of over 10 µM.
In the case of `N#CCc1cnc(-c2ccc3ccccc3c2)n1-c1ccnc(Nc2cccc(C(=O)C3CC3)c2)n1`, the IC50 [1] is reported as 0.007 µM, the IC50 [2] is reported as 1.73 µM and the IC50 [3] is reported as 0.287 µM.
Molecule `N#CCc1cnc(-c2ccc(F)c(C(F)(F)F)c2)n1-c1ccnc(NC2CCCCC2)n1` has an IC50 [1] of 10 µM.
In the case of `N#CCc1cnc(-c2ccc(Cl)c(Cl)c2)n1-c1ccnc(NC(=O)NC2CCCN(C(=O)C3CC3)C2)n1` (stereo unspecified), the IC50 [1] is reported as over 10 µM, the IC50 [2] is reported as over 10 µM and the IC50 [3] is reported as over 10 µM.
Molecule `N#CCc1cnc(-c2ccc3c(c2)OCCO3)n1-c1ccnc(NC2CCOCC2)n1` has an IC50 [1] of over 10 µM.
With `N#CCc1cnc(C2=CC3OCCOC3C=C2)n1-c1ccnc(N[C@H]2CCCN(C(=O)C3CC3)C2)n1` (stereo partly specified) the IC50 [1] was 1.52 µM.
In the case of `Oc1ccc(/C=C/c2cc(O)cc(O)c2)cc1`, the Activity [4] is reported as “Active”.
Molecule `C[C@@H](O)CNc1nccc(-n2c(CC#N)cnc2-c2ccc(F)c(C(F)(F)F)c2)n1` has an IC50 [1] of over 10 µM.
Molecule `C[C@@H](O)CNc1nccc(-n2c(CC#N)cnc2-c2ccc3c(c2)OCO3)n1` has an IC50 [1] of over 10 µM.
In the case of `N#CCc1cnc(-c2ccc3c(c2)OCO3)n1-c1ccnc(NC2CCOCC2)n1`, the IC50 [1] is reported as 8.56 µM.
`O=C1c2ccccc2C2=NNC3=CC=CC1C32` (stereo unspecified) showed an IC50 [5] of 0.04 µM and an IC50 [6] of 0.04 µM.
`N#CCc1cnc(-c2ccc3c(c2)CCO3)n1-c1ccnc(N[C@H]2CCCN(C(=O)C3CC3)C2)n1` showed a Papp [7] of 8.91 ×10⁻⁶ cm/s, an efflux ratio at 1 h, 10 µM [8] of 2.86 and a Papp B→A at 1 h, 10 µM [9] of 31.3 ×10⁻⁶ cm/s. The Papp A→B at 1 h, 10 µM [10] was 11 ×10⁻⁶ cm/s, the Activity [11] was “Non-Toxic” and the Time [12] was 21.91 s. The Time [13] was 71.1 s, the Activity [14] was 57.14% and the Time [15] was 22.5 s. The Time [16] was 21.55 s, the Time [17] was 40.1 s and the Time [18] was 34.7 s. The Activity [19] was 54.99%, the Activity [20] was 53.15% and the Activity [21] was “Non-Toxic”. For the same molecule, the Activity [22] was “Non-Toxic”, the Activity [23] was “Non-Toxic” and the Activity [24] was “Non-Toxic”. The Kp [25] was 0.06, the Cmax [26] was 5910 ng/mL and the Drug uptake [27] was 357 ng/g. For the same molecule, the bioavailability [28] was 86.2%, the half-life [29] was 68.4 min and the half-life [30] was 21.6 min. It also gave a Tmax [31] of 40.2 min, a Cmax [32] of 1240 ng/mL and an AUC at 24 h [33] of 1090 ng·h/mL. For the same molecule, the viability at 20 µM [34] was 73.3%, the viability at 20 µM [35] was 46.3% and the IC50 [1] was 0.0041 µM. The IC50 [2] was 0.148 µM and the IC50 [3] was 0.044 µM.
For `N#CCc1cnc(-c2ccc3c(c2)OCO3)n1-c1ccnc(NC2CCCCC2)n1`, the IC50 [1] was 0.814 µM.
For `N#CCc1cnc(-c2ccc3ccccc3c2)n1-c1ccnc(N[C@H]2CCCCN(C(=O)C3CC3)C2)n1`, the IC50 [1] was 0.0241 µM, the IC50 [2] was 0.962 µM and the IC50 [3] was 0.241 µM.
Work on `N#CCc1cnc(-c2ccc3ccccc3n2)n1-c1ccnc(NC2CCOCC2)n1` yielded an IC50 [1] of 13.5 µM.
In the case of `O=C(C1CC1)N1CCC[C@H](Nc2nccc(-n3c(-c4ccc5c(c4)OCCO5)nc4cc(O)c(O)cc43)n2)C1`, the IC50 [36] is reported as over 10 µM, the IC50 [37] is reported as about 1 µM and the IC50 [1] is reported as 0.01 µM.
Molecule `N#CCc1cnc(-c2ccc(F)c(C(F)(F)F)c2)n1-c1ccnc(NC2CCOCC2)n1` has an IC50 [1] of 0.421 µM.
In the case of `Cc1ccc(-c2ncn(-c3ccc(Nc4nccc(-c5cccc(N6CCOCC6)c5)n4)cc3)n2)cn1`, the Activity [4] is reported as “inactive”.
`N#CCc1cnc(-c2ccc(Cl)c(Cl)c2)n1-c1ccnc(NC2CCOCC2)n1` gave an IC50 [1] of 0.29 µM.
With `N#CCc1cnc(-c2ccc(F)c(C(F)(F)F)c2)n1-c1ccnc(N[C@H]2CCCN(C(=O)C3CC3)C2)n1` the IC50 [1] was 3.28 µM.
